Assay results published in ChEMBL document CHEMBL5500363, “Discovery of novel ocotillol derivatives modulating glucocorticoid receptor/NF-κB signaling for the treatment of sepsis” (Eur J Med Chem, 2024).
Active and inactive are the calls of the source. The rule behind the calls is not given here.

Assays:
RAW264.7 [1] = assay: Anti-inflammatory activity in mouse RAW264.7 cells assessed as decrease in LPS-induced p65 phosphorylation at 20 uM pretreated for 2 hrs followed by LPS stimulation for 24 hrs by Western blot analysis; assay type: functional, cell-based; conditions: time 26.0 hrs
Mus musculus [2] = assay: Upregulation of glucocorticoid receptor expression in liver of LPS-induced sepsis BALB/c mouse model at 7.5 to 30 mg/kg administered via gavage for 3 days followed by LPS treatment for 6 hrs by Western blot analysis; assay type: functional, organism-based; conditions: dose 7.5-30 mg/kg, time 78.0 hrs
Mus musculus [3] = assay: Downregulation of p65 phosphorylation in liver of LPS-induced sepsis BALB/c mouse model at 7.5 to 30 mg/kg administered via gavage for 3 days followed by LPS treatment for 6 hrs by Western blot analysis; assay type: functional, organism-based; conditions: dose 7.5-30 mg/kg, time 78.0 hrs
Mus musculus [4] = assay: Anti-septic activity in LPS-induced sepsis BALB/c mouse assessed as reduction in pathological change in kidney at 7.5 to 30 mg/kg administered via gavage for 3 days followed by LPS treatment for 6 hrs by H and E staining based analysis; assay type: functional, organism-based; conditions: dose 7.5-30 mg/kg, time 78.0 hrs
Mus musculus [5] = assay: Anti-septic activity in LPS-induced sepsis BALB/c mouse assessed as reduction in hepatic hemorrhage at 7.5 to 30 mg/kg administered via gavage for 3 days followed by LPS treatment for 6 hrs by H and E staining based analysis; assay type: functional, organism-based; conditions: dose 7.5-30 mg/kg, time 78.0 hrs
RAW264.7 [6] = assay: Inhibition of LPS-induced NO production in mouse RAW264.7 cells at 20 uM pretreated for 2 hrs followed by LPS stimulation for 24 hrs by Griess assay relative to control; assay type: functional; conditions: time 26 hrs
Mus musculus [7] = assay: Anti-septic activity in LPS-induced sepsis BALB/c mouse assessed as reduction in serum ALT level at 30 mg/kg administered via gavage for 3 days followed by LPS treatment for 6 hrs; assay type: functional, organism-based; conditions: time 78.0 hrs
RAW264.7 [8] = assay: Inhibition of LPS-induced NO production in mouse RAW264.7 cells pretreated for 2 hrs followed by LPS stimulation for 24 hrs by Griess assay; assay type: functional, cell-based
RAW264.7 [9] = assay: Anti-inflammatory activity in mouse RAW264.7 cells assessed as inhibition of LPS-induced IL-6 production pretreated for 2 hrs followed by LPS stimulation for 24 hrs by ELISA; assay type: functional, cell-based; conditions: dose 5-20 µM
RAW264.7 [10] = assay: Upregulation of glucocorticoid receptor expression in LPS-treated mouse RAW264.7 cells pretreated for 2 hrs followed by LPS stimulation for 24 hrs by Western blot analysis; assay type: functional, cell-based; conditions: time 26.0 hrs

IC50 (RAW264.7 [8]): 3.38 µM
Structure (SMILES): CC(C)(C)OC(=O)CCC(=O)Nc1nc2c(s1)C[C@]1(C)[C@H]3C[C@@H](O)[C@@H]4C([C@]5(C)CC[C@@H](C(C)(C)O)O5)CC[C@@]4(C)[C@]3(C)CC[C@H]1C2(C)C (stereo not given in full)
Activity (RAW264.7 [1]): Active | Activity (Mus musculus [2]): Active | Activity (Mus musculus [3]): Active | Activity (Mus musculus [4]): Active | Activity (Mus musculus [5]): Active | inhibition at 20 µM (RAW264.7 [6]): 86% | Activity (Mus musculus [7]): Active | inhibition (RAW264.7 [9]): Dose-Dependent Effect | Activity (RAW264.7 [10]): Active
